# Read-outs that look alike come from different tables or passages of the source.
# Columns and labels:
# Format in all cases: cell-based
# [1] = tested on: BEL-7402 liver cancer cell line; assay: CCK-8 proliferation inhibition; settings: concentration of 30 μM
# From the text: (§1) 2. The present invention adopts the CCK-8 method to determine the proliferation inhibition effect of the spiro three-membered ring, spiro five-membered ring peptide deformylase inhibitor as described in Examples 1-80 against colorectal cancer cells, lung cancer cells, gastric cancer cells, liver cancer cells, and the like. […] The compound having the best activity synthesized in Example 64 was further tested for its inhibitory activity against other tumor cells including T cell leukemia, acute myeloid leukemia, cervical cancer, breast cancer, prostate cancer and osteosarcoma, and the like (see Table 7).
# (§2) (1) HCT-116 colorectal cancer cell line, A549 lung cancer cell line, MGC-803 gastric cancer cell line, BEL-7402 liver cancer cell line, Jurkat T cell leukemia cell line, HL60 acute myeloid leukemia cell line, Hela cervical cancer cell line, MCF-7 breast cancer cell line, PC3 prostate cancer cell line and SAOS-2 osteosarcoma cell line were made into single cell suspension, 180 μL of which was inoculated into 96-well culture plate, which was cultured overnight in CO2 incubator (37° C., 5% CO2, 95% air).
# (§3) (2) Each of the spiro three-membered ring, spiro five membered ring peptide deformylase inhibitors was dissolved in DMSO, and was further formulated into drug solution with required different final concentration using corresponding cell culture medium. The drug solutions were added to the above cells respectively (20 μL/well), with the control group added with 1‰ DMSO, and cultured in a CO2 incubator for 72 hours.
# (§4) (3) After incubation for 72 hours, the culture solution was decanted, and 100 μL of 1:10 diluted CCK-8 solution was added.
# (§5) Wherein, in step (1), the concentration of the single cell suspension was 2000 cells/well.
# (§6) Wherein, in step (2), HCT-116 cells were cultured in McCoy's 5A medium (containing 10% newborn bovine serum, 1% double antibody); A549 and PC3 cells were cultured in F12 medium (containing 10% newborn bovine serum, 1% double antibody); MGC-803, BEL-7402, SAOS-2, Jurkat and HL60 cells were cultured in 1640 medium (containing 10% newborn bovine serum, 1% double antibody); and MCF-7 and Hela cells were cultured in DMEM high glucose medium (containing 10% newborn bovine serum, 1% double antibody).
# [2] = tested on: A549 lung cancer cell line; assay: CCK-8 proliferation inhibition; settings: Homo sapiens, A549, 72 h, concentration of 30 μM
# From the text: as §1, §2, §3, §4, §5, §6
# [3] = tested on: MGC-803 gastric cancer cell line; assay: CCK-8 proliferation inhibition; settings: Homo sapiens, MGC-803, 72 h, concentration of 30 μM
# From the text: as §1, §2, §3, §4, §5, §6
# [4] = tested on: Enterococcus faecalis (EFA); assay: MIC, two-fold agar dilution (CLSI), clinical isolates
# Method in brief: (§7)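 Following the American Clinical and Laboratory Standards Institute procedure, agar two-fold dilution served to determine minimum inhibitory concentrations.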
# [5] = tested on: Moraxella catarrhalis (BCA); assay: as above
# Method in brief: as §7
# [6] = tested on: methicillin-sensitive Staphylococcus aureus (MSSA); assay: as above
# Method in brief: as §7
# [7] = tested on: Streptococcus pneoumoniae (SPN); assay: as above
# Method in brief: as §7
# [8] = tested on: methicillin-sensitive Staphylococcus epidermidis (MSSE); assay: as above
# Method in brief: as §7
# [9] = tested on: methicillin-resistant Staphylococcus epidermidis (MRSE); assay: as above
# Method in brief: as §7
# [10] = tested on: Escherichia coli (including ESBLs, non-ESBLs); assay: as above
# Method in brief: as §7
# [11] = tested on: methicillin-resistant Staphylococcus aureus (MRSA); assay: as above
# Method in brief: as §7
# [12] = tested on: Enterococcus faecium (EFM); assay: as above
# Method in brief: as §7
# [13] = tested on: HCT-116 colorectal cancer cell line; assay: CCK-8 proliferation inhibition; settings: Homo sapiens, HCT-116, 72 h, concentration of 30 μM, 72 hours, CCK-8
# Method in brief: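 Cells were plated overnight at 2000 cells/well, then compound in culture medium was added at a range of final concentrations. After 72 hours in a CO2 incubator, medium was replaced with 1:10 CCK-8 solution for the read-out.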
structure (smiles),measurement,setting,value
"O=CN(O)C[C@@H](CC1CCCC1)C(=O)N1CC2(CC2)C[C@H]1C(=O)Nc1ccc(N2CCOCC2)cc1 [Example 25, (S)-5-((R)-3-cyclopentyl-2-((N-hydroxyformamido)methyl)propionyl)-N-(4-morpholinophenyl)-5-spiro[2.4]heptane-6-carboxamide]",inhibition at 30 µM,"[1]; Homo sapiens, Bel-7402, 72 h",> 50%
same,"Inhibition of proliferation, Liver cancer BEL-7402","[1]; 72 hours, 30 µM",65%
same,inhibition at 30 µM,[2],30%
same,inhibition at 30 µM,[3],27%
same,MIC (anti-bacterial activity),[4]; strain EFA 15-1,2 µg/mL
same,MIC (anti-bacterial activity),[4]; strain EFA 15-2,2 µg/mL
same,MIC (anti-bacterial activity),[4]; strain EFA 15-3,0.5 µg/mL
same,MIC (anti-bacterial activity),[4]; strain EFA 15-4,2 µg/mL
same,MIC (anti-bacterial activity),[4]; strain EFA 15-5,2 µg/mL
same,MIC (anti-bacterial activity),[4]; strain EFA 15-6,2 µg/mL
same,MIC (anti-bacterial activity),[4]; strain EFA 15-9,2 µg/mL
same,MIC (anti-bacterial activity),[5]; strain BCA 14-1,0.5 µg/mL
same,MIC (anti-bacterial activity),[5]; strain BCA 14-4,0.25 µg/mL
same,MIC (anti-bacterial activity),[5]; strain BCA 14-5,0.5 µg/mL
same,MIC (anti-bacterial activity),[5]; strain BCA 14-6,1 µg/mL
same,MIC (anti-bacterial activity),[5]; strain BCA 14-7,0.25 µg/mL
same,MIC (anti-bacterial activity),[5]; strain BCA 14-8,0.25 µg/mL
same,MIC (anti-bacterial activity),[5]; strain BCA 14-10,0.25 µg/mL
same,MIC (anti-bacterial activity),[6]; strain MSSA 15-3,0.25 µg/mL
same,MIC (anti-bacterial activity),[6]; strain MSSA 15-4,0.25 µg/mL
same,MIC (anti-bacterial activity),[6]; strain MSSA 15-5,0.25 µg/mL
same,MIC (anti-bacterial activity),[6]; strain MSSA 15-6,0.25 µg/mL
same,MIC (anti-bacterial activity),[7]; strain SPN 16-2,0.5 µg/mL
same,MIC (anti-bacterial activity),[7]; strain SPN 16-4,2 µg/mL
same,MIC (anti-bacterial activity),[8]; strain MSSE 15-3,0.25 µg/mL
same,MIC (anti-bacterial activity),[8]; strain MSSE 15-4,0.25 µg/mL
same,MIC (anti-bacterial activity),[8]; strain MSSE 15-5,0.25 µg/mL
same,MIC (anti-bacterial activity),[8]; strain MSSE 15-6,0.25 µg/mL
same,MIC (anti-bacterial activity),[9]; strain MRSE 15-1,0.06 µg/mL
same,MIC (anti-bacterial activity),[9]; strain MRSE 15-2,0.25 µg/mL
same,MIC (anti-bacterial activity),[9]; strain MRSE 15-3,0.25 µg/mL
same,MIC (anti-bacterial activity),[9]; strain MRSE 15-7,0.25 µg/mL
same,MIC (anti-bacterial activity),[10]; strain ECO+ 15-1,32 µg/mL
same,MIC (anti-bacterial activity),[10]; strain ECO+ 15-2,> 32 µg/mL
same,MIC (anti-bacterial activity),[10]; strain ECO+ 15-3,> 32 µg/mL
same,MIC (anti-bacterial activity),[10]; strain ECO+ 15-4,> 32 µg/mL
same,MIC (anti-bacterial activity),[10]; strain ECO− 15-1,> 32 µg/mL
same,MIC (anti-bacterial activity),[10]; strain ECO− 15-2,> 32 µg/mL
same,MIC (anti-bacterial activity),[10]; strain ECO− 15-3,> 32 µg/mL
same,MIC (anti-bacterial activity),[10]; strain ECO− 15-4,> 32 µg/mL
same,MIC (anti-bacterial activity),[11]; strain MRSA 15-1,0.25 µg/mL
same,MIC (anti-bacterial activity),[11]; strain MRSA 15-2,0.25 µg/mL
same,MIC (anti-bacterial activity),[11]; strain MRSA 15-3,0.25 µg/mL
same,MIC (anti-bacterial activity),[11]; strain MRSA 15-4,0.25 µg/mL
same,MIC (anti-bacterial activity),[12]; strain EFM 15-1,1 µg/mL
same,MIC (anti-bacterial activity),[12]; strain EFM 15-2,0.5 µg/mL
same,MIC (anti-bacterial activity),[12]; strain EFM 15-3,0.5 µg/mL
same,MIC (anti-bacterial activity),[12]; strain EFM 15-4,0.25 µg/mL
same,MIC (anti-bacterial activity),[12]; strain EFM 15-5,0.5 µg/mL
same,MIC (anti-bacterial activity),[12]; strain EFM 15-6,1 µg/mL
same,inhibition at 30 µM,"[13]; Table 5, read-out: Inhibition of proliferation, Colorectal cancer HCT116",≥ 30%
same,inhibition at 30 µM,[13]; read-out: HCT116 inhibition rate/%,35%

# — patent US10738028B2, “Spiro three-membered ring, spiro five-membered ring peptide deformylase inhibitor and use thereof in antibacteria and anti-tumor” (priority 2016, dated 2020)
